The values that follow come from patent US11980185B2, “Bioflavonoid compositions and their use for water purification and food preservation” (Citrox Biosciences Limited, priority 2018, dated 2024).

Test [1] concerns Streptococcus mutans. The test can be described thus: Inhibition zone assay on BHI agar plate. The test is classed as cell-based. The conditions noted are these: 48 h at 37° C. anaerobe. On the procedure:
The antibacterial activity of ε-polylysine was semi-quantitatively assessed in a inhibition zone assay. 0.1 mL of a confluent Streptococcus mutans culture was spread over a Brain Heart Infusion (BHI) agar plate. Filter platelets (5 mm diameter) soaked with 0.01 mL substance were applied on plate. Plates were incubated 48 h at 37° C. under anaerobe conditions. The diameter of outer limit of the inhibition zones were measured, the diameter of the platelet deduced and the half result considered the radius of inhibition rings. Concentrations were tested in triplicate and their results averaged.

Test [2] has as its system Escherichia coli. The test can be described thus: Direct exposure growth inhibition of mini cultures by turbidity (MIC). The test is classed as cell-based. The conditions noted are these: 5 hours at 37° C.
Experimental: Growth inhibition was monitored by measuring turbidity of mini cultures after 5 hours of aerobe incubation at 37° C. under agitation. Solutions were diluted to the half in cascade.
Test [3] relates to S. mutans. The test can be described thus: Short exposure assay (bactericidal effect). The class given is cell-based, Streptococcus mutans. The conditions noted are these: 0.05%, 10 minutes exposure, 5000 Colony Forming Units. How it is done:
The short-term antibacterial activity of Citrox was semi-quantitatively assessed in a short exposure assay. A S. mutans culture, diluted in order to contain 5000 Colony Forming Units, was incubated for 10 minutes in presence of the antibacterial substance and extemporarily plated onto a BHI agar plate. Plates were incubated at 37° C. under anaerobe conditions and colony counted. […] Citrox 0.5% reduced the count of CFU to the half (<3000 CFU).

The subject of test [4] is chloroquine-sensitive Plasmodium chabaudi. The test can be described thus: Malaria infection in mice. The conditions noted are these: 20 to 40 days post-treatment. The test is classed as in vivo.
Test [5] has as its target Glucose oxidase (Aspergillus niger, UniProt P13006). The test can be described thus: Immobilisation of glucose oxidase onto silicate, residual activity in solution. To be noted: 0.25 mg/mL, 2 mg/mL silicate, artificial saliva buffer, FIG. 3. On the procedure:
0.5 mg/mL glucose oxidase enzyme was incubated for 15 minutes at room temperature in an artificial saliva buffer composition including:
with 2 mg/mL silicate and 0.25 mg/mL of an amino acid based compound, bovine serum albumin (BSA), lysine or ε-polylysine. The mixture was centrifuged in order to pellet the silicate and the supernatant tested for its glucose oxidase activity in presence of glucose, lactoperoxidase and a chromogen substrate (ABTS). The resulting activities were compared with the enzyme incubated with silicate in absence of an amino acid compound (FIG. 3).

Test [6] has as its system Escherichia coli. In words: Pretreatment of high binding plates, growth inhibition by turbidity. The class given is cell-based. How it is done: High Binding plates were pre-treated with 0.1 mL of pure Citrox/ε-Polylysine solutions incubated 60′ at room temperature. The concentrations of Citrox range from 0.06% to 4%. The ε-Polylysine concentrations range from 30 mg/L to 120 mg/L. The wells have been emptied and rinsed with 0.2 mL bi-distilled water. 0.2 mL of a diluted Escherichia coli culture (turbidity: 5 mOD at 600 nm) were given to the pre-treated wells and incubated for 3 hours at 37° C. Turbidity were measured at 600 nm and percentage of growth inhibition in comparison to untreated well calculated (FIG. 1).

Glucose oxidase, sequence (P13006 17-605): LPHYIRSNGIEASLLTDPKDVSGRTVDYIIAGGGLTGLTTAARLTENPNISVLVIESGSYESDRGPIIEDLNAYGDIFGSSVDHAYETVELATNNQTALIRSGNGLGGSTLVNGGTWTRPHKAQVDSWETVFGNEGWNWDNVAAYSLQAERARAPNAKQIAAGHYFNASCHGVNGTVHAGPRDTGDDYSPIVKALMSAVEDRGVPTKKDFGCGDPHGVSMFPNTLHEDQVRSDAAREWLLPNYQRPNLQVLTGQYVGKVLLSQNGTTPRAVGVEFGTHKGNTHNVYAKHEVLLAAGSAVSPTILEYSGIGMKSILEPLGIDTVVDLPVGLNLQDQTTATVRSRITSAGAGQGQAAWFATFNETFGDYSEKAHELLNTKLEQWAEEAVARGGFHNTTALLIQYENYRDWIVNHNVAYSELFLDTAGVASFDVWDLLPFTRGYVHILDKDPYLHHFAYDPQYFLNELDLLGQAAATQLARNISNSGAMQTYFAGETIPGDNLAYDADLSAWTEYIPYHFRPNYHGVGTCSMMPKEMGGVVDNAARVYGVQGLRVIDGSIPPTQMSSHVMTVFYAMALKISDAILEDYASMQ

In the case of `CCO` [Ethanol, reference compound], the “Radius of inhibition rings” value in test [1] (concentration not given) worked out at 5 mm. Also, the “Minimal inhibitory concentration (MIC)” value in test [2] (less than 2% (6% in case of ethanol) of growth, extrapolated from FIG. 2, 1% corresponds to 10 g/L) was 12.5%.
Turning to `OO` [Water peroxide, reference compound], the “Radius of inhibition rings” value came to 1.5 mm in test [1] (0.1%) and 5 mm in test [1] (1%). Besides, in test [3], the colony formation result is recorded as “complete absence of colony formation”.
On to `CCN(CC)CCCC(C)Nc1ccnc2cc(Cl)ccc12` (stereo not shown) [chloroquine], for which the infection level result in test [4] was “approx. zero infection”.
With ε-Polylysine, the “Radius of inhibition rings” value in test [1] (10 mg/L) was found to be 0.5 mm; in test [1] (100 mg/L), 2.5 mm; in test [1] (1000 mg/L) it was 6.5 mm. In test [5], the “immobilization of Glucose oxidase onto silicate” value was “promotes immobilization of Glucose oxidase onto silicate”. Moreover, the “highest ε-polylysine concentration that does not affect significantly the antibacterial effect of Citrox pretreatment” value in test [6] (plate pretreatment together with Citrox) is 30 mg/L. Moreover, the “inhibitory effect of pretreatment of a high binding plate” value in test [6] (ε-polylysine alone, titers largely above the MIC of direct exposure) was “does not yield any inhibitory effect”. Besides, the “Minimal inhibitory concentration (MIC)” value in test [2] (less than 2% of growth vs untreated control, extrapolated from FIG. 2) was 4 mg/L.
